# Laboratory results taken from US20240246920A1, “TRIAZOLE DERIVATIVES WITH ANTIFUNGAL ACTIVITY” (King's College London, priority 2020, published 2024).
# Like-named read-outs stand apart in the source and are kept apart here.
# How the values were obtained:
# Candida auris TDG2211 = experiment: microbe, parasite or virus in culture; format: cell-based; conditions: Candidozyma auris
# Protocol: (§1) The minimum inhibitory concentration of test compounds were determined in a panel of Candida species (see Table 4 below), using the a serial dilution method in 96-well plates using the following protocol.
# (§2) Starter cultures of fungal strains to be tested were grown in 3 mL of RPMI 2% glucose media incubated at 37° C. with shaking at 200 rpm overnight. The culture media used was 900 mL H2O; 10.4 g RPMI 1640 (with L-glutamine and a pH indicator but without bicarbonate); 34.5 g MOPS and 18 g glucose. The pH of the media was adjusted to 7.0 with 1 M sodium hydroxide.
# (§3) Solutions of the compound to be tested were prepared by dissolving the compound in DMSO and subsequently into media to the desired concentrations. […] The last two rows of each plate were control rows containing the culture media alone and the media plus fungi.
# (§4) The fungi starter cultures were diluted 1:10 in water in cuvettes. This was then further diluted to an optical density (OD600) of 0.01 in media. 100 μL of the fungi was added to each well giving a starting concentration of fungus of 0.5-5×10^5/mL. One species of fungus was used on each plate. The plates were then held at 37° C. for 24 hours.
# (§5) A plate reader was used to measure growth in each well at OD530 nm and the MIC was determined for each test compound. The MIC is defined as the lowest concentration giving rise to inhibition of ≥50% of that of the drug-free control well containing the fungus and media.
# (§6) The Candida auris strains shown in Table 7 were either taken from the National Collection of Pathogenic Fungi (NCPF) or collected as part of ongoing surveillance studies. The strains were characterised as follows.
# Candida auris TDG2506 = experiment: microbe, parasite or virus in culture; format: cell-based; conditions: Candidozyma auris
# Protocol: as §1, §2, §3, §4, §5, §6
# C. auris 8971 = experiment: Candida panel MIC, serial dilution in 96-well plates; format: cell-based, Candida auris
# Protocol: as §1, §2, §3, §4, §5, §6
# C. auris 8977 = experiment: as above; format: cell-based, Candida auris
# Protocol: as §1, §2, §3, §4, §5, §6
# C. auris 8984 = experiment: as above; format: cell-based, Candida auris
# Protocol: as §1, §2, §3, §4, §5, §6
# C. albicans NCPF3281 = experiment: as above; format: cell-based, Candida albicans; conditions: Candida albicans, NCPF3281; Table 4, common panel; 24 hours, ≥50% inhibition; read-out: MIC C. albicans NCPF3281
# Protocol: as §1, §2
# (§7) Solutions of the compound to be tested were prepared by dissolving the compound in DMSO and subsequently into media to the desired concentrations. 200 μL of compound solution was then added to the wells of the 96-well plate using a serial dilution method row-by row of the plate to give a compound concentration gradient across the plate of from 128 μg/mL to 0.25 μg/mL. The last two rows of each plate were control rows containing the culture media alone and the media plus fungi.
# as §4, §5
# C. glabrata NCPF8018 = experiment: as above; format: cell-based, Candida glabrata; conditions: Nakaseomyces glabratus
# Protocol: as §1, §2, §3, §4, §5
# C. krusei NCPF3876 = experiment: microbe, parasite or virus in culture; format: cell-based, Candida krusei; conditions: Pichia kudriavzevii
# Protocol: as §1, §2, §3, §4, §5
# C. parapsilosis NCPF3209 = experiment: microbe, parasite or virus in culture; format: cell-based, Candida parapsilosis; conditions: Lodderomyces parapsilosis
# Protocol: as §1, §2, §3, §4, §5
# C. auris TDG1912 = experiment: Candida panel MIC, serial dilution in 96-well plates; format: cell-based; conditions: Candidozyma auris, TDG1912; Table 4; 24 hours, ≥50% inhibition; read-out: MIC C. auris TDG1912
# Protocol: as §1, §2, §7, §4, §5
# C. tropicalis NCPF8760 = experiment: as above; format: cell-based
# Protocol: as §1, §2, §7, §4, §5
# Candida auris TDG1102 = experiment: as above; format: cell-based; conditions: Candidozyma auris, TDG1102; Table 4, extended panel; 24 hours, ≥50% inhibition; read-out: MIC Candida auris TDG1102
# Protocol: as §1, §2, §7, §4, §5
# Candida auris TDG2512 = experiment: as above; format: cell-based; conditions: Candidozyma auris, TDG2512; Table 4, extended panel; 24 hours, ≥50% inhibition; read-out: MIC Candida auris TDG2512
# Protocol: as §1, §2, §7, §4, §5
# [1] = NCPF8018, Table 4, common panel, 24 hours, ≥50% inhibition, read-out: MIC C. glabrata NCPF8018
# [2] = NCPF3876, Table 4, common panel, 24 hours, ≥50% inhibition, read-out: MIC C. krusei NCPF3876
# [3] = NCPF3209, Table 4, common panel, 24 hours, ≥50% inhibition, read-out: MIC C. parapsilosis NCPF3209
# [4] = NCPF8760, Table 4, common panel, 24 hours, ≥50% inhibition, read-out: MIC C. tropicalis NCPF8760
# [5] = NCPF8018, read-out: MIC C. Glabrata NCPF8018
# [6] = NCPF3876, read-out: MIC C. Krusei NCPF3876
# [7] = NCPF3209, read-out: MIC C. Parapsilosis NCPF3209
# [8] = TDG2211, Table 4, extended panel, 24 hours, ≥50% inhibition, read-out: MIC Candida auris TDG2211
# [9] = TDG2506, Table 4, extended panel, 24 hours, ≥50% inhibition, read-out: MIC Candida auris TDG2506
# [10] = NCPF8760, read-out: MIC C. Tropicalis NCPF8760
# [11] = Candidozyma auris, 8971, Table 4, extended panel, 24 hours, ≥50% inhibition, read-out: MIC C. auris 8971
# [12] = Candidozyma auris, 8977, Table 4, extended panel, 24 hours, ≥50% inhibition, read-out: MIC C. auris 8977
# [13] = Candidozyma auris, 8984, Table 4, extended panel, 24 hours, ≥50% inhibition, read-out: MIC C. auris 8984
SMILES,MIC (C. albicans NCPF3281) [µg/mL],MIC (C. glabrata NCPF8018; [1]) [µg/mL],MIC (C. krusei NCPF3876; [2]) [µg/mL],MIC (C. parapsilosis NCPF3209; [3]) [ng/mL],MIC (C. auris TDG1912) [µg/mL],MIC (C. tropicalis NCPF8760; [4]) [µg/mL],MIC (C. glabrata NCPF8018; [5]) [µg/mL],MIC (C. krusei NCPF3876; [6]) [µg/mL],MIC (C. parapsilosis NCPF3209; [7]) [ng/mL],MIC (Candida auris TDG2211; [8]) [ng/mL],MIC (Candida auris TDG2506; [9]) [µg/mL],MIC (C. tropicalis NCPF8760; [10]) [µg/mL],MIC (Candida auris TDG1102) [µg/mL],MIC (Candida auris TDG2512) [ng/mL],MIC (C. auris 8971; [11]) [ng/mL],MIC (C. auris 8977; [12]) [ng/mL],MIC (C. auris 8984; [13]) [µg/mL],further results
"OC(CN1CCC(Nc2ccc(OCc3ccccc3)cc2)CC1)(Cn1cncn1)c1ccc(F)cc1F (stereo not drawn) [Compound number 90, 1-(4-((4-(benzyloxy)phenyl)amino)piperidin-1-yl)-2-(2,4-difluorophenyl)-3-(1H-1,2,4-triazol-1-yl)propan-2-ol]",,,,,,,,,,,,,,,,,,"MIC (Candida auris TDG2211; TDG2211, read-out: MIC C. auris 2211): ≤ 3 ng/mL; MIC (Candida auris TDG2506; TDG2506, read-out: MIC C. auris 2506): ≤ 0.003 µg/mL; MIC (C. auris 8971; Candidozyma auris, 8971, read-out: MIC C. auris 8971): ≤ 3 ng/mL; MIC (C. auris 8977; Candidozyma auris, 8977, read-out: MIC C. auris 8977): ≤ 3 ng/mL; MIC (C. auris 8984; Candidozyma auris, 8984, read-out: MIC C. auris 8984): ≤ 0.003 µg/mL"
"OC(CN1CCC2(CCN(Cc3ccccc3)CC2)CC1)(Cn1cncn1)c1ccc(F)cc1F (stereo not drawn) [Example 1, 1-(9-Benzyl-3,9-diazaspiro[5.5]undecan-3-yl)-2-(2,4-difluorophenyl)-3-(1H-1,2,4-triazol-1-yl)propan-2-ol]",0.5 to 1,≤ 0.125,1 to 2,4000 to 8000,≤ 0.125,0.25 to 1,,,,,,,,,,,,
"OC(CN1CCC2(CCN(c3ncc(F)cn3)CC2)C1)(Cn1cncn1)c1ccc(F)cc1F (stereo not drawn) [Example 7, 2-(2,4-Difluorophenyl)-1-(8-(5-fluoropyrimidin-2-yl)-2,8-diazaspiro[4.5]decan-2-yl)-3-(1H-1,2,4-triazol-1-yl)propan-2-ol]",< 0.008,0.25,0.06,4,0.12,0.015,0.25,0.06,4,125,0.5,0.015,0.25,30,30,2,0.12,
"OC(CN1CCCCN(c2cnccn2)CC1)(Cn1cncn1)c1ccc(F)cc1F (stereo not drawn) [Example 17, 2-(2,4-Difluorophenyl)-1-(4-(pyrazin-2-yl)-1,4-diazocan-1-yl)-3-(1H-1,2,4-triazol-1-yl)propan-2-ol]",≤ 0.125,0.12,4,≤ 125,4 to 16,4 to 8,,,,,,,,,,,,
CC(C)COc1ccc(NC2CCN(CC(O)(Cn3cncn3)c3ccc(F)cc3F)CC2)cc1 (stereo not drawn) [Example 84],0.00195,0.06,0.03,0.98 to 1.95,,0.125,0.06,0.03,0.98 to 1.95,0.98 to 1.95,0.03,0.125,0.0156,1.95 to 3.91,1.95 to 3.91,3.91,0.03,
COc1ccc(Oc2ccc(NC3CCN(CC(O)(Cn4cncn4)c4ccc(F)cc4F)CC3)cc2)cc1 (stereo not drawn) [Example 86],0.0078 to 0.0156,0.5,0.015 to 0.125,0.98 to 7.8,,0.125,0.5,0.015 to 0.125,0.98 to 7.8,7.8,0.0625,0.125,0.015 to 0.0625,7.8,0.98 to 30,0.98 to 3.9,0.0078 to 0.125,
